Legend:
Test in all cases: relative viability (nuclei count vs DMSO), 5 days (fraction); higher = more cells survive
[1] = compound: C/C(=N\NC(=S)N1CCC1)/C2=CC=CC=N2
Summary of the method: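 On vehicle-anchored 1536-well plates, lung cancer cell lines held overnight at 37 °C were pinned with five library-drug doses (not always all listed) spaced by √10. With no medium change over 5 days, they were then fixed, permeabilised and Hoechst-stained in one step and imaged at 4×. MetaXpress counted nuclei, and viability is the median across plates of treated-well over vehicle-well nuclei. Acceptance needed control CV below 25% and at least one doubling.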

[2] = compound: C/C(=N\NC(=S)N1CCC1)/C2=CC=CC=N2 + N=C(N)NC(=N)NCCc1ccccc1 [Phenformin] (partner 250 µM)
Summary of the method: (§1)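 After 5 days of treatment, lung cancer cells in 1536-well plates were fixed and stained in a single step (final 0.05% Triton X-100, 1% formaldehyde, 1 ug/ml Hoechst) and their nuclei counted on 4× images. Treatment had been applied by pin tool the day after seeding as one drug alone or as a fixed anchor-drug dose with five library-drug doses (not always all listed) in √10 steps. Relative viability is the nuclei count of treated wells divided by that of vehicle wells, and values are medians of duplicate plates.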

[3] = compound: C/C(=N\NC(=S)N1CCC1)/C2=CC=CC=N2 + COc1cccc2cc(-c3nc([C@H]4CC[C@H](C(=O)O)CC4)n4ncnc(N)c34)[nH]c12 [OSI-027] (partner 0.5 µM)
Summary of the method: as §1

[4] = compound: C/C(=N\NC(=S)N1CCC1)/C2=CC=CC=N2 + CC(=O)Nc1cccc(-n2c(=O)n(C3CC3)c(=O)c3c(Nc4ccc(I)cc4F)n(C)c(=O)c(C)c32)c1 [Trametinib] (partner 0.02 µM)
Summary of the method: as §1

| Cell Line | relative viability ([1]; 0.05 µM) | relative viability ([1]; 0.1581 µM) | relative viability ([1]; 0.5 µM) | relative viability ([1]; 1.581 µM) | relative viability ([1]; 5 µM) | relative viability ([2]; first compound 0.05 µM) | relative viability ([2]; first compound 0.1581 µM) | relative viability ([2]; first compound 0.5 µM) | relative viability ([2]; first compound 1.581 µM) | relative viability ([2]; first compound 5 µM) | relative viability ([3]; first compound 0.05 µM) | relative viability ([3]; first compound 0.1581 µM) | relative viability ([3]; first compound 0.5 µM) | relative viability ([3]; first compound 1.581 µM) | relative viability ([3]; first compound 5 µM) | relative viability ([4]; first compound 0.05 µM) | relative viability ([4]; first compound 0.1581 µM) | relative viability ([4]; first compound 0.5 µM) | relative viability ([4]; first compound 1.581 µM) | relative viability ([4]; first compound 5 µM) |
| --- | --- | --- | --- | --- | --- | --- | --- | --- | --- | --- | --- | --- | --- | --- | --- | --- | --- | --- | --- | --- |
| LOU-NH91 | 0.5 | 0.572 | 0.553 | 0.42 | 0.464 | 0.371 | 0.403 | 0.352 | 0.262 | 0.419 | 0.412 | 0.476 | 0.447 | 0.388 | 0.396 | 0.632 | 0.6 | 0.583 | 0.512 | 0.452 |
| LU99A | 0.161 | 0.209 | 0.162 | 0.145 | 0.182 | 0.163 | 0.189 | 0.145 | 0.143 | 0.178 | 0.186 | 0.182 | 0.161 | 0.162 | 0.177 | 0.186 | 0.405 | 0.183 | 0.152 | 0.146 |
| LXF-289 | 0.276 | 0.313 | 0.278 | 0.292 | 0.119 | 0.22 | 0.203 | 0.202 | 0.2 | 0.0793 | 0.2 | 0.223 | 0.222 | 0.146 | 0.0943 | 0.284 | 0.553 | 0.206 | 0.221 | 0.176 |
| NCI-H23 | 0.17 | 0.196 | 0.187 | 0.154 | 0.172 | 0.144 | 0.164 | 0.185 | 0.117 | 0.139 | 0.136 | 0.127 | 0.154 | 0.137 | 0.143 | 0.119 | 0.137 | 0.121 | 0.0972 | 0.128 |
| NCI-H322M | 0.337 | 0.337 | 0.352 | 0.329 | 0.35 | 0.332 | 0.375 | 0.249 | 0.255 | 0.311 | 0.325 | 0.351 | 0.321 | 0.288 | 0.337 | 0.451 | 0.45 | 0.424 | 0.43 | 0.423 |
| NCI-H358 | 0.132 | 0.125 | 0.143 | 0.119 | 0.114 | 0.0917 | 0.112 | 0.101 | 0.0719 | 0.107 | 0.0802 | 0.0946 | 0.0796 | 0.0601 | 0.0821 | 0.1 | 0.0969 | 0.116 | 0.0973 | 0.097 |
| NCI-H1299 | 0.1 | 0.12 | 0.186 | 0.185 | 0.145 | – | – | – | – | – | – | – | – | – | – | – | – | – | – | – |
| NCI-H1563 | 0.62 | 0.6 | 0.504 | 0.538 | 0.522 | 0.374 | 0.472 | 0.491 | 0.506 | 0.611 | 0.5 | 0.541 | 0.506 | 0.541 | 0.542 | – | – | – | – | – |
| NCI-H1648 | 0.317 | 0.278 | 0.25 | 0.317 | 0.304 | – | – | – | – | – | 0.309 | 0.279 | 0.351 | 0.314 | 0.307 | 0.408 | 0.403 | 0.289 | 0.302 | 0.31 |
| NCI-H1703 | 0.0684 | 0.0887 | 0.112 | 0.126 | 0.161 | – | – | – | – | – | – | – | – | – | – | – | – | – | – | – |

Source: the supplement of paper PMC10307832
